# Counter-ions that a name gives are not always drawn.
# Key:
# [1] = B6D2F1-mice, absorption from the gastro-intestinal tract; cited from earlier work
# [2] = cited from earlier work
# [3] = Bendamustine hydrochloride solubility in carriers (HPLC of supernatant); type: physicochemical
# Protocol: Due to the necessity to determine if part of the bendamustine hydrochloride added to the vehicle is dissolved, in order to verify a possible degradation, an analytical procedure, from sample preparation to its analysis, was developed.
# Essentially, it consisted in the preparation of a supersaturated solution of bendamustine hydrochloride in the oil: the minimum amount of bendamustine hydrochloride suitable to generate sedimentation of solid particle on the bottom of the vessel was added to the oil warmed at 40° C.; this solution was electromagnetically stirred for several days (about 4) at room temperature and then centrifuged at 3000 rpm for 15 minutes. The supernatant was analysed by HPLC versus a solution of bendamustine hydrochloride working standard (0,551 mg/ml).
# Essentially, it consisted in the preparation of a supersaturated solution of bendamustine hydrochloride in the vehicle: the minimum amount of bendamustine hydrochloride suitable to generate sedimentation of solid particle on the bottom of the vessel was added to the oil heated to about 5° C. above its melting point; this solution was kept in static condition at this temperature overnight, to allow sedimentation on the bottom. The supernatant was analysed by HPLC versus a solution of API working standard (0.551 mg/ml).
# In table 21.a below, the results of the analysis are reported expressed as mg of bendamustine hydrochloride completely dissolved in about 1 g of solution of the carrier selected.
# Further samples for the solubility evaluation were prepared by adding, under stirring, a quantity of active ingredient (API) suitable to generate a phase segregation to a determined amount of each carrier. The samples were prepared at a temperature slightly above the melting point of each carrier (except for liquid vehicles) and kept at this temperature for about 5 hrs (estimated manufacturing process time). Where applicable, each sample was centrifuged to accelerate phase segregation; an amount of the supernatant, corresponding to the filling weight of a capsule (about 600 mg), was withdrawn and evaluated for assay to determine the amount of API actually dissolved.
# Each solubility value is related to a specific temperature, corresponding to the value set for the filling into capsules (see table 14).
# [4] = Solubility of bendamustine hydrochloride in water and organic solvents; type: physicochemical
# Excerpt: Therefore it is not surprising that the oral bendamustine compositions, as investigated by Preiss et al. and Weber gave rise to relatively poor bioavailability results and a large inter-individual variability.
# [5] = carrier CREMOPHOR A6 (Semisolid at room temperature), suspension weight 1015.3 mg
# [6] = carrier CREMOPHOR A25 (Semisolid at room temperature), suspension weight 995.6 mg
# [7] = carrier CREMOPHOR EL (Liquid at room temperature), suspension weight 1026.8 mg
# [8] = carrier CREMOPHOR RH40 (Semisolid at room temperature), suspension weight 1000.4 mg
# [9] = carrier LABRAFAC PG (Liquid at room temperature), suspension weight 1961.5 mg
# [10] = carrier LABRAFIL M1944 CS (Liquid at room temperature), suspension weight 1011.7 mg
# [11] = carrier LABRAFIL M2125 (Liquid at room temperature), suspension weight 765.2 mg
# [12] = carrier LAUROGLYCOL 90 (Liquid at room temperature), suspension weight 993.9 mg
# [13] = carrier LAUROGLYCOL FCC (Liquid at room temperature), suspension weight 1934.8 mg
# [14] = carrier MIGLYOL 810 (Liquid at room temperature), suspension weight 602.8 mg
# [15] = carrier MIGLYOL 812 (Liquid at room temperature), suspension weight 1044.1 mg
# [16] = carrier MIGLYOL 829 (Liquid at room temperature), suspension weight 1865.0 mg
# [17] = carrier MIGLYOL 840 (Liquid at room temperature), suspension weight 599.9 mg
# [18] = carrier PLUROL oleique CC497 (Liquid at room temperature), suspension weight 1005.8 mg
# [19] = carrier PLURONIC L44 NF INH (Liquid at room temperature), suspension weight 1987.1 mg
# [20] = carrier SOFTIGEN 701 (Liquid at room temperature), suspension weight 1079.0 mg
# [21] = carrier SOFTISAN 645 (Liquid at room temperature), suspension weight 1014.0 mg
# [22] = carrier TRANSCUTOL HP (Liquid at room temperature), suspension weight 1003.1 mg
compound,measurement,setting,value
Cn1c(CCCC(=O)O)nc2cc(N(CCCl)CCCl)ccc21 [bendamustine hydrochloride],bioavailability,[1],about 40%
same,mean oral bioavailability,"[2]; 7 patients, oral capsules vs intravenous, 4.2-5.5 mg/kg",57%
same,time to maximal plasma levels after oral administration,"[2]; patients, oral capsules of 25 mg, 250-350 mg",≤ 1 h
same,Solubility,"[3]; carrier BRIJ C2 (Semisolid), T 45 ° C.",0.004 mg API/mg Solution
same,Solubility,"[3]; carrier BRIJ L4 (Liquid), T 25 ° C.",0.008 mg API/mg Solution
same,Solubility,"[3]; carrier BRIJ L23 (Solid), T 45 ° C.",0.004 mg API/mg Solution
same,Solubility,"[3]; carrier BRIJ O10 (Semisolid), T 45 ° C.",0.007 mg API/mg Solution
same,Solubility,"[3]; carrier BRIJ O20 (Semisolid), T 45 ° C.",0.006 mg API/mg Solution
same,Solubility,"[3]; carrier BRIJ S10 (Solid), T 42 ° C.",0.003 mg API/mg Solution
same,Solubility,"[3]; carrier BRIJ S20 (Solid), T 50 ° C.",0.008 mg API/mg Solution
same,Solubility,"[3]; carrier BRIJ S721 (Solid), T 45 ° C.",0.004 mg API/mg Solution
same,% API,[3]; [5],0.00%
same,API recovered,[3]; [5],0.00 mg
same,% API,[3]; [6],0.21%
same,API recovered,[3]; [6],2.10 mg
same,% API,[3]; [7],0.5%
same,API recovered,[3]; [7],5.13 mg
same,% API,[3]; [8],0.77%
same,API recovered,[3]; [8],7.72 mg
same,Solubility,"[3]; carrier GELUCIRE 44/14 (Semisolid), T 45 ° C.",0.004 mg API/mg Solution
same,Solubility,"[3]; carrier GLYCEROX HE (Liquid), T 25 ° C.",0.005 mg API/mg Solution
same,% API,[3]; [9],0.001%
same,API recovered,[3]; [9],0.01 mg
same,% API,[3]; [10],0.04%
same,API recovered,[3]; [10],0.38 mg
same,% API,[3]; [11],0.02%
same,API recovered,[3]; [11],0.17 mg
same,% API,[3]; [12],0.06%
same,API recovered,[3]; [12],0.61 mg
same,% API,[3]; [13],0.02%
same,API recovered,[3]; [13],0.33 mg
same,% API,[3]; [14],0.01%
same,API recovered,[3]; [14],0.04 mg
same,% API,[3]; [15],0.003%
same,API recovered,[3]; [15],0.03 mg
same,% API,[3]; [16],0.001%
same,API recovered,[3]; [16],0.03 mg
same,% API,[3]; [17],0.01%
same,API recovered,[3]; [17],0.06 mg
same,Solubility,"[3]; carrier MIRJ S8 (Semisolid), T 42 ° C.",0.010 mg API/mg Solution
same,Solubility,"[3]; carrier MIRJ S40 (Solid), T 50 ° C.",0.005 mg API/mg Solution
same,Solubility,"[3]; carrier MIRJ S100 (Semisolid), T 50 ° C.",0.009 mg API/mg Solution
same,% API,[3]; [18],0.21%
same,API recovered,[3]; [18],2.12 mg
same,Solubility,"[3]; carrier PLURONIC 103 (Semisolid), T 45 ° C.",0.002 mg API/mg Solution
same,Solubility,"[3]; carrier PLURONIC F108 (Solid), T 70 ° C.",0.006 mg API/mg Solution
same,Solubility,"[3]; carrier PLURONIC L35 (Liquid), T 25 ° C.",0.000 mg API/mg Solution
same,Solubility,"[3]; carrier PLURONIC L43 (Liquid), T 25 ° C.",0.000 mg API/mg Solution
same,% API,[3]; [19],0.18%
same,API recovered,[3]; [19],3.64 mg
same,Solubility,"[3]; carrier PLURONIC L64 (Liquid), T 25 ° C.",0.000 mg API/mg Solution
same,Solubility,"[3]; carrier PLURONIC P85 (Semisolid), T 50 ° C.",0.002 mg API/mg Solution
same,Solubility,"[3]; carrier PLURONIC P105 (Semisolid), T 50 ° C.",0.002 mg API/mg Solution
same,% API,[3]; [20],0.29%
same,API recovered,[3]; [20],5.42 mg
same,% API,[3]; [21],0.16%
same,API recovered,[3]; [21],1.60 mg
same,Solubility,"[3]; carrier SOLUTOL HS15 (Semisolid), T 35 ° C.",0.007 mg API/mg Solution
same,Solubility,"[3]; carrier SPEZIOL TPGS (Semisolid), T 45 ° C.",0.002 mg API/mg Solution
same,% API,[3]; [22],1.00%
same,API recovered,[3]; [22],10.01 mg
same,Solubility,"[3]; carrier TWEEN 20 (Liquid), T 25 ° C.",0.008 mg API/mg Solution
same,Solubility,"[3]; carrier TWEEN 40 (Liquid), T 25 ° C.",0.007 mg API/mg Solution
same,Solubility,"[3]; carrier TWEEN 61 (Semisolid), T 45 ° C.",0.019 mg API/mg Solution
same,Solubility,"[3]; carrier TWEEN 65 (Liquid), T 45 ° C.",0.007 mg API/mg Solution
same,Solubility,"[3]; carrier TWEEN 81 (Liquid), T 25 ° C.",0.004 mg API/mg Solution
same,bendamustine hydrochloride recovered in a supersaturated solution in liquid or semisolid oily vehicles,[3]; selected carriers,< 1%
same,solubility in a range of organic solvents,[4],slightly or very slightly soluble
same,solubility in ethanol and methanol,[4],good solubility
same,solubility in water,[4]; pH of 2.0,sparingly soluble
